Values quoted from earlier work as cited in patent US8759216B2, “Compositions and methods for polishing silicon nitride materials” (Cabot Microelectronics Corporation, priority 2006, dated 2014).
Like-named read-outs stand apart in the source and are kept apart here.

O=C(O)CCCC(=O)O [glutaric]
pKa (first listed pKa value): 4.34 | pKa (second listed pKa value): 5.41

OP(O)O [phosphorous, phosphorous acid]
pKa (first listed pKa value): 2.00 | pKa (second listed pKa value): 6.59

O=C(O)c1ccccc1C(=O)O [phthalic, phthalic acid]
pKa (first listed pKa value): 2.89 | pKa (second listed pKa value): 5.51
